{"source": "patent US7767714B2", "about": "“Method of preventing infectious diseases” (Ajinomoto Co., Inc., priority 2002, dated 2010)", "key": {"[1]": {"system": "influenza virus A/Aichi/2/68 (H3N2)", "assay": "Body weight change of mice after influenza virus infection (Example 1)", "format": "in vivo, BALB/c female mice", "details": "mouse; feed with 0.5 wt % L-cystine and/or 0.2 wt % L-theanine for 2 weeks; 10^5 PFU nasally; versus control group on basic feed; FIG. 1", "from_the_text": "4-week-old BALB/c female mice in the growth period were preliminarily raised on a solid feed (CRF-1 solid feed, Charles River Japan, inc.) for one week, then preliminarily raised on a powder feed (CRF-1 powder feed, Charles River Japan, inc.) for one week, and when they reached 6 weeks of age, the feed was changed to a feed containing 20 wt % of casein as a protein source (basic feed: composition: α-corn starch 68.3 wt %, casein 20 wt %, mineral mixture 3.5 wt %, vitamin mixture 1 wt %, cellulose powder 2 wt %, corn-oil 5 wt %, choline bitartrate 0.2 wt %), the same feed supplemented with 0.5 wt % of L-cystine as an amino acid, the same feed supplemented with 0.2 wt % of L-theanine as an amino acid, and the same feed supplemented with 0.5 wt % of L-cystine and 0.2 wt % of L-theanine as amino acids (the present invention), and further raised for 2 weeks. Those continuously raised on the basic feed were used as a control group. Ten mice were used for the test for each group.\nAt two weeks of the amino acid addition feed administration, 10^5 PFU influenza virus A/Aichi/2/68 (H3N2) was nasally inoculated, the body weight of the mice was measured immediately before virus inoculation and day 5 of infection.\nThus, it was clarified that a concurrent use of L-theanine enhanced the action of L-cystine."}, "trichomonas": {"system": "trichomonas", "details": "extremely high concentration of theanine, in vitro cultivation system; Nature 166, 352, 1950; cited from earlier work"}, "Escherichia coli": {"system": "Escherichia coli", "details": "Chem. Pharm. Bull. 28, 3549-3554, 1980; cited from earlier work"}, "Staphylococcus aureus": {"system": "Staphylococcus aureus", "details": "J. Biol. Chem. 171, 387, 1947; Chem. Pharm. Bull. 28, 3549-3554, 1980; cited from earlier work"}}, "data": [{"compound": "N[C@@H](CSSC[C@H](N)C(=O)O)C(=O)O", "note": "[L-cystine]", "values": [{"measurement": "body weight change at day 5 of influenza virus infection", "setting": "[1]", "result": "suppressed somewhat"}]}, {"compound": "CCNC(=O)CC[C@H](N)C(=O)O", "note": "[L-theanine]", "values": [{"measurement": "body weight change at day 5 of influenza virus infection", "setting": "[1]", "result": "body weight decrease of the same level as that of the control group"}]}, {"compound": "CCNC(=O)CC[C@H](N)C(=O)O", "note": "[theanine]", "values": [{"measurement": "trichomonas growth", "setting": "trichomonas", "result": "suppression of trichomonas growth"}, {"measurement": "growth of Escherichia coli", "setting": "Escherichia coli", "result": "suppression of growth of Staphylococcus aureus and Escherichia coli"}, {"measurement": "growth of Staphylococcus aureus", "setting": "Staphylococcus aureus", "result": "suppression of growth of Staphylococcus aureus"}]}]}
